Laboratory results taken from patent US7879795B2, “Enhancement of tigecycline potency using efflux pump inhibitors” (Mpex Pharmaceuticals, Inc., priority 2004, dated 2011).

Experiments:
PAM1723 = conditions: Table 3
Protocol: Stability in rat and human serum was also evaluated using a bioassay. 320 μg/ml of the test compound was treated with 50% serum for 4 hours.
Bioassays as described in Example 62 and Example 65 were used to evaluate the stability of various compounds in serum and rabbit kidney homogenates.

[1] = Acute toxicity, minimal lethal dose after IV bolus in mice; format: in vivo, mouse; conditions: IV bolus into tail vein, lethal for at least one of three mice
Protocol: Acute toxicity was measured as minimal lethal dose (MLD). MLD is defined as a minimal concentration of a compound that has lethal effect for at least one mouse from the group of three mice after IV bolus injection into the mouse tail vein.

[2] = system: strains of Klebsiella, Enterobacter and Citrobacter; assay: Potentiation of tigecycline against enterobacteria with decreased susceptibility to tigecycline; format: cell-based; conditions: in words
Protocol: (§1) To further characterize the clinical potential of tigecycline/EPI combinations, the microbiological activity of tigecycline in combination with compound 21 was investigated using clinical isolates of P. aeruginosa and other gram-negative bacteria. In several experiments, described below, the impact of a fixed concentration of compound 21 (2.5 μg/ml) on susceptibility to tigecycline was determined.
The impact of compound 21 on the activity of tigecycline against representative members of Enterobacteriacaea was also tested.

[3] = system: Burkholderia, Proteus, Morganella, Providencia and Serratia; assay: Potentiation of tigecycline against other gram-negative clinical isolates; format: cell-based; conditions: in words
Protocol: as §1
Strains with decreased susceptibility to tigecycline were also present among representatives of Burkholderia, Proteus, Morganella, Providencia and Serratia. […] While not being bound by any particular theory, it is probable that the lack of potentiation by compound 21 is due to limited uptake of this particular EPI across the outer membrane of these bacteria, rather than the absence of efflux pumps.

[4] = system: Enterobacteriaceae, Acinetobacter, Burkholderia, Stenotrphomonas, Staphylococcus; conditions: Example 86, written in present tense

| SMILES | EPI MPC8 after 4 hours at 37° C., Frosen Human serum (PAM1723; 50% human serum) | EPI MPC8 after 4 hours at 37° C., Frozen Rat serum (PAM1723; 50% rat serum) | EPI MPC8 after 4 hours at 37° C., Saline (PAM1723; saline) | MLD (minimal lethal dose) [1] [mg/kg] | potentiation of tigecycline against strains with decreased susceptibility [2] | effect on susceptibility to tigecycline [3] | effect on tigecycline resistance and emergence of resistance [4] |
| --- | --- | --- | --- | --- | --- | --- | --- |
| NCCC[C@H](N)C(=O)N[C@H](CCc1ccccc1)C(=O)Nc1cnc2ccccc2c1 [Compound 3, 2-(S),5-Diamino-pentanoic acid [3-phenyl-1-(R)-(quinolin-3-ylcarbamoyl)-propyl]-amide] | 5 | 5 | 5 | 25 |  |  |  |
| NCCC[C@H](N)C(=O)N[C@H](Cc1ccc(C(F)(F)F)cc1)C(=O)Nc1cnc2ccccc2c1 [Compound 21, 2-(S),5-Diamino-pentanoic acid [1-(R)-(quinolin-3-ylcarbamoyl)-2-(4-trifluoromethyl-phenyl)-ethyl]amide] |  |  |  |  | potentiated tigecycline | did not decreased susceptibility to tigecycline | reduces tigecycline resistance and emergence of resistance |
